Data published in ChEMBL document CHEMBL1127136, “Vinylogous vs arylogous isocephems” (1993).
In brackets after ≈: the same amount, converted by molar mass.

Assays:
[1] = system: Staphylococcus sp.; assay: Antibacterial activity against staphylococci was determined.; type: functional
[2] = system: Enterobacteriaceae; assay: Antibacterial activity against enterobacteriaceae was determined.; type: functional

Row | SMILES | MIC [1] | MIC [2]
1 | CO/N=C(/C(=O)N[C@@H]1C(=O)N2C(C(=O)[O-])=C(/C=C/c3ccc(C[n+]4ccccc4)o3)SC[C@H]12)c1csc(N)n1 | 6.3 µg/mL (≈ 11.1 µM) | 5.9 µg/mL (≈ 10.4 µM)
2 | CO/N=C(/C(=O)N[C@@H]1C(=O)N2C(C(=O)[O-])=C(/C=C/C#CC[n+]3ccccc3)SC[C@H]12)c1csc(N)n1 | 5 µg/mL (≈ 9.53 µM) | 0.4 µg/mL (≈ 0.763 µM)
3 | CO/N=C(/C(=O)N[C@@H]1C(=O)N2C(C(=O)[O-])=C(/C=C\C[N+](C)(C)C)SC[C@H]12)c1csc(N)n1 | 10 µg/mL (≈ 20.8 µM) | 1 µg/mL (≈ 2.08 µM)
4 | CO/N=C(/C(=O)N[C@@H]1C(=O)N2C(C(=O)O)=C(CSc3nnnn3C)SC[C@H]12)c1csc(N)n1 | 15.9 µg/mL (≈ 31.1 µM) | 0.4 µg/mL (≈ 0.782 µM)
5 | CO/N=C(/C(=O)N[C@@H]1C(=O)N2C(C(=O)O)=C(/C=C/CSc3nnnn3C)SC[C@H]12)c1csc(N)n1 | 2.5 µg/mL (≈ 4.65 µM) | 0.14 µg/mL (≈ 0.26 µM)
6 | CO/N=C(/C(=O)N[C@@H]1C(=O)N2C(C(=O)[O-])=C(C[N+](C)(C)C)SC[C@H]12)c1csc(N)n1 | 10 µg/mL (≈ 22 µM) | 0.28 µg/mL (≈ 0.616 µM)
7 | CO/N=C(/C(=O)N[C@@H]1C(=O)N2C(C(=O)O)=C(/C=C/C=C/CSc3nnnn3C)SC[C@H]12)c1csc(N)n1 | 5 µg/mL (≈ 8.87 µM) | 1.5 µg/mL (≈ 2.66 µM)
8 | CO/N=C(/C(=O)N[C@@H]1C(=O)N2C(C(=O)[O-])=C(/C=C/c3ccc(C[n+]4ccccc4)s3)SC[C@H]12)c1csc(N)n1 | 3.1 µg/mL (≈ 5.32 µM) | 3.8 µg/mL (≈ 6.52 µM)
9 | CO/N=C(/C(=O)N[C@@H]1C(=O)N2C(C(=O)[O-])=C(C[n+]3ccccc3)SC[C@H]12)c1csc(N)n1 | 2.5 µg/mL (≈ 5.27 µM) | 0.2 µg/mL (≈ 0.421 µM)
10 | CO/N=C(/C(=O)N[C@@H]1C(=O)N2C(C(=O)[O-])=C(/C=C/c3cccc(C[n+]4ccccc4)c3)SC[C@H]12)c1csc(N)n1 | 2.5 µg/mL (≈ 4.34 µM) | 8 µg/mL (≈ 13.9 µM)
11 | CO/N=C(/C(=O)N[C@@H]1C(=O)N2C(C(=O)[O-])=C(/C=C/c3ccc(C[n+]4ccccc4)cc3)SC[C@H]12)c1csc(N)n1 | 6.3 µg/mL (≈ 10.9 µM) | 3.9 µg/mL (≈ 6.76 µM)

Compounds with a lower MIC [1], results first:

Row | MIC [1] | MIC [2] | SMILES
12 | 0.76 µg/mL (≈ 1.43 µM) | 0.12 µg/mL (≈ 0.226 µM) | CO/N=C(/C(=O)N[C@@H]1C(=O)N2C(C(=O)[O-])=C(C[n+]3cccc4ccsc43)SC[C@H]12)c1csc(N)n1
13 | 0.8 µg/mL (≈ 1.6 µM) | 0.3 µg/mL (≈ 0.599 µM) | CO/N=C(/C(=O)N[C@@H]1C(=O)N2C(C(=O)[O-])=C(/C=C/c3cc[n+](C)cc3)SC[C@H]12)c1csc(N)n1
14 | 0.38 µg/mL | 0.12 µg/mL | CO/N=C(/C(=O)N[C@@H]1C(=O)N2C(C(=O)O)=C(/C=C/C=C/C[n+]3cccc4ccsc43)SC[C@H]12)c1csc(N)n1.O=C([O-])C(F)(F)F
15 | 0.95 µg/mL (≈ 1.65 µM) | 7.3 µg/mL (≈ 12.7 µM) | CO/N=C(/C(=O)N[C@@H]1C(=O)N2C(C(=O)[O-])=C(/C=C/c3ccccc3C[n+]3ccccc3)SC[C@H]12)c1csc(N)n1
16 | 1.2 µg/mL (≈ 2.5 µM) | 0.19 µg/mL (≈ 0.395 µM) | CO/N=C(/C(=O)N[C@@H]1C(=O)N2C(C(=O)[O-])=C(/C=C/C[N+](C)(C)C)SC[C@H]12)c1csc(N)n1
17 | 0.12 µg/mL (≈ 0.216 µM) | 0.03 µg/mL (≈ 0.0539 µM) | CO/N=C(/C(=O)N[C@@H]1C(=O)N2C(C(=O)[O-])=C(/C=C/C[n+]3cccc4ccsc43)SC[C@H]12)c1csc(N)n1
